HELM strings list units from the 5' end as sugar, base in round brackets, then linkage (d deoxyribose, r ribose, m 2'-O-methyl, p phosphodiester). Strings are as the collection lists them; they lack the last nucleoside at the 3' end of the tested compound. [moe] = 2'-O-(2-methoxyethyl) (MOE); [sp] = phosphorothioate linkage; [m5C] = 5-methylcytosine

The series concerns the target GFAP. Put plainly: mouse, dose not given. Conditions: ASO.
Regarding “RNA1{[moe](G)[sp].[moe](A)p.[moe](G)p.[moe](G)p.[moe]([m5C])[sp].d(T)[sp].d(T)[sp].d(T)[sp].d(T)[sp].d(G)[sp].d(A)[sp].d(G)[sp].d(A)[sp].d(T)[sp].d(A)[sp].[moe](T)p.[moe]([m5C])p.[moe](T)[sp].[moe](T)}$$$$ (last 3' nucleoside missing)”, the 3 h FOB score is 4 score 0-7.
The same measure for “RNA1{[moe](T)[sp].[moe](G)p.[moe]([m5C])p.[moe]([m5C])p.d(A)[sp].d(T)[sp].d(T)[sp].d(T)[sp].d(A)[sp].d(T)[sp].d([m5C])[sp].d(T)[sp].d(G)[sp].d(T)[sp].[moe](G)p.[moe]([m5C])p.[moe](T)p.[moe](T)[sp].[moe](T)}$$$$ (last 3' nucleoside missing)”: 0 score 0-7; for “RNA1{[moe]([m5C])[sp].[moe](T)p.[moe](G)p.[moe]([m5C])p.[moe]([m5C])p.d(A)[sp].d(T)[sp].d(T)[sp].d(T)[sp].d(A)[sp].d(T)[sp].d([m5C])[sp].d(T)[sp].d(G)[sp].d(T)[sp].[moe](G)p.[moe]([m5C])p.[moe](T)[sp].[moe](T)}$$$$ (last 3' nucleoside missing)”: 2 score 0-7.
Under “RNA1{[moe](A)[sp].[moe]([m5C])p.[moe](G)p.[moe](T)p.[moe]([m5C])p.[moe](A)p.d([m5C])[sp].d(A)[sp].d(T)[sp].d(T)[sp].d([m5C])[sp].d(A)[sp].d([m5C])[sp].d(T)[sp].d(A)[sp].d(A)[sp].[moe](T)p.[moe](A)[sp].[moe](T)}$$$$ (last 3' nucleoside missing)” stands 0 score 0-7.
Under “RNA1{[moe](A)[sp].[moe]([m5C])p.[moe]([m5C])p.[moe](T)p.[moe]([m5C])[sp].d([m5C])[sp].d([m5C])[sp].d(T)[sp].d(G)[sp].d(A)[sp].d([m5C])[sp].d([m5C])[sp].d(T)[sp].d(G)[sp].d(T)[sp].[moe]([m5C])p.[moe](T)p.[moe](A)[sp].[moe](T)}$$$$ (last 3' nucleoside missing)” stands 3 score 0-7; under “RNA1{[moe](T)[sp].[moe](T)p.[moe](G)p.[moe](G)p.[moe]([m5C])[sp].d(A)[sp].d(G)[sp].d(T)[sp].d(A)[sp].d(T)[sp].d(T)[sp].d(A)[sp].d([m5C])[sp].[moe]([m5C])p.[moe](T)p.[moe]([m5C])[sp].[moe](T)}$$$$ (last 3' nucleoside missing)”, 0 score 0-7; under “RNA1{[moe](T)[sp].[moe](G)p.[moe](A)p.[moe](G)p.[moe](A)[sp].d(T)[sp].d(A)[sp].d(T)[sp].d([m5C])[sp].d(T)[sp].d(T)[sp].d(G)[sp].d(T)[sp].d(G)[sp].d(A)[sp].[moe]([m5C])p.[moe]([m5C])p.[moe](T)[sp].[moe](T)}$$$$ (last 3' nucleoside missing)”, 6 score 0-7.
With “RNA1{[moe]([m5C])[sp].[moe](A)p.[moe](T)p.[moe](G)p.[moe](G)[sp].d([m5C])[sp].d([m5C])[sp].d(T)[sp].d(G)[sp].d(G)[sp].d([m5C])[sp].d([m5C])[sp].d(T)[sp].d(T)[sp].d(G)[sp].[moe](A)p.[moe](G)p.[moe](A)[sp].[moe](A)}$$$$ (last 3' nucleoside missing)”, the 3 h FOB score turned out to be 1 score 0-7.
The same measure for “RNA1{[moe](T)[sp].[moe](T)p.[moe](T)p.[moe](G)p.[moe](T)p.[moe]([m5C])p.d(T)[sp].d(T)[sp].d(T)[sp].d(A)[sp].d(T)[sp].d(T)[sp].d(T)[sp].d(T)[sp].d(T)[sp].d([m5C])[sp].[moe]([m5C])p.[moe](T)[sp].[moe]([m5C])}$$$$ (last 3' nucleoside missing)”: 0 score 0-7.
Under “RNA1{[moe]([m5C])[sp].[moe](A)p.[moe](G)p.[moe]([m5C])p.[moe]([m5C])p.[moe](T)p.d(G)[sp].d(G)[sp].d(T)[sp].d(T)[sp].d(A)[sp].d(G)[sp].d([m5C])[sp].d([m5C])[sp].d(T)[sp].d(T)[sp].[moe](T)p.[moe]([m5C])[sp].[moe](T)}$$$$ (last 3' nucleoside missing)” stands 4 score 0-7; under “RNA1{[moe](A)[sp].[moe]([m5C])p.[moe](A)p.[moe](T)p.d(T)[sp].d([m5C])[sp].d(A)[sp].d([m5C])[sp].d(T)[sp].d(A)[sp].d(A)[sp].d(T)[sp].d(A)[sp].d(T)[sp].[moe](T)p.[moe](T)p.[moe](A)p.[moe](A)[sp].[moe]([m5C])}$$$$ (last 3' nucleoside missing)”, 0 score 0-7.
“RNA1{[moe](G)[sp].[moe](G)p.[moe](G)p.[moe](T)p.[moe](G)[sp].d(A)[sp].d(G)[sp].d(T)[sp].d(T)[sp].d(T)[sp].d([m5C])[sp].d(T)[sp].d(T)[sp].d(G)[sp].d(T)[sp].[moe](T)p.[moe](A)p.[moe](G)[sp].[moe](T)}$$$$ (last 3' nucleoside missing)” yielded a 3 h FOB score of 6 score 0-7.
“RNA1{[moe](T)[sp].[moe](T)p.[moe](G)p.[moe](G)p.[moe](T)p.[moe](G)p.d([m5C])[sp].d(T)[sp].d(T)[sp].d(T)[sp].d(T)[sp].d(G)[sp].d([m5C])[sp].d([m5C])[sp].d([m5C])[sp].d([m5C])[sp].[moe]([m5C])p.[moe](T)[sp].[moe](G)}$$$$ (last 3' nucleoside missing)” showed a 3 h FOB score of 1 score 0-7.
Under “RNA1{[moe](T)[sp].[moe](T)p.[moe](G)p.[moe](G)p.[moe]([m5C])[sp].d(A)[sp].d(G)[sp].d(T)[sp].d(A)[sp].d(T)[sp].d(T)[sp].d(A)[sp].d([m5C])[sp].d([m5C])[sp].d(T)[sp].[moe]([m5C])p.[moe](T)p.[moe](A)[sp].[moe]([m5C])}$$$$ (last 3' nucleoside missing)” stands 2 score 0-7; under “RNA1{[moe](G)[sp].[moe](T)p.[moe](G)p.[moe](T)p.[moe](A)[sp].d(T)[sp].d(T)[sp].d(A)[sp].d(G)[sp].d(G)[sp].d(A)[sp].d(T)[sp].d([m5C])[sp].d([m5C])[sp].d([m5C])[sp].[moe](A)p.[moe](T)p.[moe]([m5C])[sp].[moe](T)}$$$$ (last 3' nucleoside missing)”, 4 score 0-7.
The same measure for “RNA1{[moe](G)[sp].[moe](G)p.[moe]([m5C])p.[moe](A)p.[moe]([m5C])p.[moe](A)p.d(G)[sp].d(T)[sp].d(T)[sp].d([m5C])[sp].d([m5C])[sp].d([m5C])[sp].d(A)[sp].d(G)[sp].d(A)[sp].d(T)[sp].[moe](A)p.[moe]([m5C])[sp].[moe](T)}$$$$ (last 3' nucleoside missing)”: 1 score 0-7.
Under “RNA1{[moe](T)[sp].[moe]([m5C])p.[moe](A)p.[moe]([m5C])p.d(A)[sp].d(T)[sp].d(T)[sp].d([m5C])[sp].d(A)[sp].d([m5C])[sp].d(T)[sp].d(A)[sp].d(A)[sp].d(T)[sp].[moe](A)p.[moe](T)p.[moe](T)p.[moe](T)[sp].[moe](A)}$$$$ (last 3' nucleoside missing)” stands 0 score 0-7; under “RNA1{[moe](A)[sp].[moe](G)p.[moe](T)p.[moe]([m5C])p.d(A)[sp].d(G)[sp].d([m5C])[sp].d([m5C])[sp].d(T)[sp].d(G)[sp].d(G)[sp].d(T)[sp].d(T)[sp].d(A)[sp].[moe](G)p.[moe]([m5C])p.[moe]([m5C])p.[moe](T)[sp].[moe](T)}$$$$ (last 3' nucleoside missing)”, 3 score 0-7.
